Reference: patent publication US12018021B2 (UCB Biopharma SRL, priority 2018, dated 2024)

What follows are compounds tested against IgE-Tb / sFcεRIα-Y131A-AF488 (Homo sapiens, UniProt P01854, N146Q/N252Q) (assay: IgE-Tb / sFcεRIα-Y131A-AF488 FRET assay (protocol for examples 234 to 501)). Conditions: examples 234 to 501: compound with IgE-Tb 30 minutes before sFcεRIα-Y131A-AF488, incubated 18 hours at room temperature; read-out: Y131A FRET IC50 range.
Assay type: binding
Procedure, shortened: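 Read-out is the 520/490 nm emission ratio (337 nm excitation) after 18 h at room temperature, background subtracted, fitted four-parameter for IC50. Final reagents: 5 nM IgE-Tb, preincubated 30 min with compound (top typically 10 μM, 2% DMSO, 3-fold 10-point), plus 25 nM sFcεRIα-Y131A-AF488.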

Chain of IgE-Tb / sFcεRIα-Y131A-AF488 (P01854 whole entry N146Q/N252Q): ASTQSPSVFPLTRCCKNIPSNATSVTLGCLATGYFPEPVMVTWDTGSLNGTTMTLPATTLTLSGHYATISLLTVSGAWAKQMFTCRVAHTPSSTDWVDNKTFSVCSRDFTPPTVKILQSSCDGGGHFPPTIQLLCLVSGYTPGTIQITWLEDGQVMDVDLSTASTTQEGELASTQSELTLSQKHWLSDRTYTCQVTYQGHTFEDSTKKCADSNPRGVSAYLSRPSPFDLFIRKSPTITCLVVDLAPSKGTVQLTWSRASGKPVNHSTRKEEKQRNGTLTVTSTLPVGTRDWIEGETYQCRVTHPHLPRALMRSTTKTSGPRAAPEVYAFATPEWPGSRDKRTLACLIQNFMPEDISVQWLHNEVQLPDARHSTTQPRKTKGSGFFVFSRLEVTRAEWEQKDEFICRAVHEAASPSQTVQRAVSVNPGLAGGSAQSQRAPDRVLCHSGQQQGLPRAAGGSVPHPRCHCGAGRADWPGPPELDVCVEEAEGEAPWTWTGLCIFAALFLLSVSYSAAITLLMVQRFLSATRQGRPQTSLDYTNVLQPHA

Row | Compound | IC50
1 | Cn1nc(C(F)(F)F)cc1Nc1nncn1[C@H]1CCc2sc(NC(=O)[C@H]3C[C@H]3F)c(C(=O)NCC3CC3)c2C1 (mixture of isomers) [Example 355, (5S)—N-(cyclopropylmethyl)-2-[[(1RS,2RS)-2-fluorocyclopropanecarbonyl]amino]-5-[3-[[2-methyl-5-(trifluoromethyl)pyrazol-3-yl]amino]-1,2,4-triazol-4-yl]-4,5,6,7-tetrahydro-1-benzothiophene-3-carboxamide] | < 1000 nM
2 | Cn1nc(C(F)F)cc1Nc1nncn1[C@H]1CCc2sc(NC(=O)C3CC3(F)F)c(C(=O)NCC3CC3)c2C1 (mixture of isomers) [Example 364, (5S)—N-(cyclopropylmethyl)-2-[(2,2-difluorocyclopropanecarbonyl)amino]-5-[3-[[5-(difluoromethyl)-2-methylpyrazol-3-yl]amino]-1,2,4-triazol-4-yl]-4,5,6,7-tetrahydro-1-benzothiophene-3-carboxamide] | < 1000 nM
3 | Cn1nc(OC(F)F)cc1Nc1nncn1[C@H]1CCc2sc(NC(=O)C3CC3)c(C(=O)NC3CC(F)(F)C3)c2C1 [Example 450, (5S)-2-(cyclopropanecarbonylamino)-N-(3,3-difluorocyclobutyl)-5-[3-[[5-(difluoromethoxy)-2-methylpyrazol-3-yl]amino]-1,2,4-triazol-4-yl]-4,5,6,7-tetrahydro-1-benzothiophene-3-carboxamide] | < 1000 nM
4 | Cn1nc(C(F)F)cc1Nc1nncn1[C@H]1CCc2sc(NC(=O)[C@@H]3CC3(F)F)c(C(=O)NCC3CC3)c2C1 (relative stereo) [Example 365, (5S)—N-(cyclopropylmethyl)-2-[[(1R*)-2,2-difluorocyclopropanecarbonyl]amino]-5-[3-[[5-(difluoromethyl)-2-methylpyrazol-3-yl]amino]-1,2,4-triazol-4-yl]-4,5,6,7-tetrahydro-1-benzothiophene-3-carboxamide (* or S)] | < 1000 nM
5 | Cn1nc(C(F)(F)F)cc1Nc1nncn1[C@H]1CCc2sc(NC(=O)[C@H]3C[C@H]3F)c(C(=O)NC[C@@H]3C[C@@H]3F)c2C1 [Example 392, (5S)-2-[[(1R,2R)-2-fluorocyclopropanecarbonyl]amino]-N-[[(1S,2S)-2-fluorocyclopropyl]methyl]-5-[3-[[2-methyl-5-(trifluoromethyl)pyrazol-3-yl]amino]-1,2,4-triazol-4-yl]-4,5,6,7-tetrahydro-1-benzothiophene-3-carboxamide] | < 1000 nM
6 | Cn1nc(OC(F)F)cc1Nc1nncn1[C@H]1CCc2sc(NC(=O)C3CC3)c(C(=O)NC[C@H]3C[C@H](F)C3)c2C1 [Example 456, (5S)-2-(cyclopropanecarbonylamino)-5-[3-[[5-(difluoromethoxy)-2-methylpyrazol-3-yl]amino]-1,2,4-triazol-4-yl]-N-[trans-(3-fluorocyclobutyl)methyl]-4,5,6,7-tetrahydro-1-benzothiophene-3-carboxamide] | < 1000 nM
7 | CC1CN(S(C)(=O)=O)CC1Nc1nncn1[C@H]1CCc2sc(NC(=O)C3CC3)c(C(=O)NCC3CC3)c2C1 (single isomer, unassigned) [Example 242] | < 1000 nM
8 | Cn1nc(C(F)F)cc1Nc1nncn1[C@H]1CCc2sc(NC(=O)C3CC(F)(F)C3)c(C(=O)NCC3CC3)c2C1 [Example 357, (5S)—N-(cyclopropylmethyl)-2-[(3,3-difluorocyclobutanecarbonyl)amino]-5-[3-[[5-(difluoromethyl)-2-methylpyrazol-3-yl]amino]-1,2,4-triazol-4-yl]-4,5,6,7-tetrahydro-1-benzothiophene-3-carboxamide] | < 1000 nM
9 | Cn1nc(OC(F)F)cc1Nc1nncn1[C@H]1CCc2sc(NC(=O)C3CC3(F)F)c(C(=O)N[C@H]3C[C@H](F)C3)c2C1 (single isomer, unassigned) [Example 279, (5S)-2-[[(1R*)-2,2-difluorocyclopropanecarbonyl]amino]-5-[3-[[5-(difluoromethoxy)-2-methyl-pyrazol-3-yl]amino]-1,2,4-triazol-4-yl]-N-(trans-3-fluorocyclobutyl)-4,5,6,7-tetrahydrobenzothiophene-3-carboxamide] | < 1000 nM
10 | Cn1nc(C(F)F)cc1Nc1nncn1[C@H]1CCc2sc(NC(=O)[C@H]3C[C@@H](F)C3)c(C(=O)N[C@H]3C[C@H](F)C3)c2C1 (single isomer, unassigned) [Example 477] | < 1000 nM
11 | Cn1nc(C(F)F)cc1Nc1nncn1[C@H]1CCc2sc(NC(=O)[C@H]3C[C@H]3F)c(C(=O)NCC3CC3)c2C1 (single isomer, unassigned) [Example 363] | < 1000 nM
12 | Cn1nc(OC2CC2)cc1Nc1nncn1[C@H]1CCc2sc(NC(=O)[C@H]3C[C@@H]3F)c(C(=O)NCC3CC3)c2C1 [Example 425] | < 1000 nM
13 | Cc1c(Nc2nncn2[C@H]2CCc3sc(NC(=O)C4CC4)c(C(=O)NCC4CC4)c3C2)cccc1[S+](C)[O-] (stereo partly drawn) [Example 263, (5S)-2-(cyclopropanecarbonylamino)-N-(cyclopropylmethyl)-5-[3-(2-methyl-3-methylsulfinyl-anilino)-1,2,4-triazol-4-yl]-4,5,6,7-tetrahydrobenzothiophene-3-carboxamide] | < 1000 nM
14 | Nc1c(C(=O)OCCN2CCOCC2)ncn1[C@H]1CCc2sc(NC(=O)C3CC3)c(C(=O)NCC3CC3)c2C1 [Example 248, 2-morpholin-4-ylethyl 5-amino-1-[(5S)-2-(cyclopropanecarbonylamino)-3-(cyclopropylmethylcarbamoyl)-4,5,6,7-tetrahydro-1-benzothiophen-5-yl]imidazole-4-carboxylate] | < 1000 nM
15 | Cn1nc(OC(F)F)cc1Nc1nncn1[C@H]1CCc2sc(NC(=O)C3CC3)c(C(=O)NC[C@H]3C[C@@H]3F)c2C1 [Example 462, (5S)-2-(cyclopropanecarbonylamino)-5-[3-[[5-(difluoromethoxy)-2-methylpyrazol-3-yl]amino]-1,2,4-triazol-4-yl]-N-[[(1R,2S)-2-fluorocyclopropyl]methyl]-4,5,6,7-tetrahydro-1-benzothiophene-3-carboxamide] | < 1000 nM
16 | COCCOC(=O)c1ncn([C@H]2CCc3sc(NC(=O)C4CC4)c(C(=O)NCC4CC4)c3C2)c1N [Example 247, 2-methoxyethyl 5-amino-1-[(5S)-2-(cyclopropanecarbonylamino)-3-(cyclopropylmethylcarbamoyl)-4,5,6,7-tetrahydro-1-benzothiophen-5-yl]imidazole-4-carboxylate] | < 1000 nM
17 | O=C(NCC1CC1)c1c(NC(=O)C2CC2)sc2c1C[C@@H](n1cnnc1N[C@H]1CCN(c3ncccn3)C1)CC2 [Example 246] | < 1000 nM
18 | C[C@H]1CCCN1C(=O)c1ncn([C@H]2CCc3sc(NC(=O)[C@H]4C[C@H]4F)c(C(=O)NCC4CC4)c3C2)c1N (relative stereo) [Example 259, (5S)-5-[5-amino-4-[(2S)-2-methylpyrrolidine-1-carbonyl]imidazol-1-yl]-N-(cyclopropylmethyl)-2-[[(1R*,2R*)-2-fluorocyclopropanecarbonyl]amino]-4,5,6,7-tetrahydrobenzothiophene-3-carboxamide] | < 1000 nM
19 | Cn1nc(C(F)F)cc1Nc1nncn1[C@H]1CCc2sc(NC(=O)[C@H]3CC34CC4)c(C(=O)NCC3CC3(F)F)c2C1 (mixture of isomers) [Example 408, (5S)—N-[(2,2-Difluorocyclopropyl)methyl]-5-[3-[[5-(difluoromethyl)-2-methylpyrazol-3-yl]amino]-1,2,4-triazol-4-yl]-2-[[(2S)-spiro [2.2]pentane-2-carbonyl]amino]-4,5,6,7-tetrahydro-1-benzothiophene-3-carboxamide] | < 1000 nM
20 | COc1cc(Nc2nncn2[C@H]2CCc3sc(NC(=O)C4CC4)c(C(=O)NCC4CC4)c3C2)ccn1 [Example 429, (5S)-2-(cyclopropanecarbonylamino)-N-(cyclopropylmethyl)-5-[3-[(2-methoxy-4-pyridyl)amino]-1,2,4-triazol-4-yl]-4,5,6,7-tetrahydrobenzothiophene-3-carboxamide] | < 1000 nM
21 | Cn1nc(C(F)F)cc1Nc1nncn1[C@H]1CCc2sc(NC(=O)C3CC3(F)F)c(C(=O)NCC3CC3(F)F)c2C1 (single isomer, unassigned) [Example 283] | < 1000 nM
22 | Cn1nc(C(F)F)cc1Nc1nncn1[C@H]1CCc2sc(NC(=O)C3CC3)c(C(=O)NC[C@@H]3CC34CC4)c2C1 (single isomer, unassigned) [Example 385] | < 1000 nM
23 | Cc1c(Nc2nncn2[C@H]2CCc3sc(NC(=O)C4CC4)c(C(=O)NCC4CC4)c3C2)cccc1S(C)(=O)=O [Example 264, (5S)-2-(cyclopropanecarbonylamino)-N-(cyclopropylmethyl)-5-[3-(2-methyl-3-methylsulfonyl-anilino)-1,2,4-triazol-4-yl]-4,5,6,7-tetrahydrobenzothiophene-3-carboxamide] | < 1000 nM
24 | Cn1nc(C(F)(F)F)cc1Nc1nncn1[C@H]1CCc2sc(NC(=O)[C@H]3C[C@H]3F)c(C(=O)NCC3CC3(F)F)c2C1 (mixture of isomers) [Example 396, (5S)—N-[(2,2-difluorocyclopropyl)methyl]-2-[[(1R,2R)-2-fluorocyclopropanecarbonyl]amino]-5-[3-[[2-methyl-5-(trifluoromethyl)pyrazol-3-yl]amino]-1,2,4-triazol-4-yl]-4,5,6,7-tetrahydro-1-benzothiophene-3-carboxamide] | < 1000 nM
25 | O=C(NCC1CC1)c1c(NC(=O)C2CC2)sc2c1C[C@@H](n1cnnc1Nc1ccc(Cl)nc1)CC2 [Example 430, (5S)-5-[3-[(6-chloro-3-pyridyl)amino]-1,2,4-triazol-4-yl]-2-(cyclopropanecarbonylamino)-N-(cyclopropylmethyl)-4,5,6,7-tetrahydrobenzothiophene-3-carboxamide] | < 1000 nM
26 | Cn1nc(C(F)F)cc1Nc1nncn1[C@H]1CCc2sc(NC(=O)[C@@H]3C[C@H]3F)c(C(=O)NCC3CC3)c2C1 (single isomer, unassigned) [Example 367] | < 1000 nM
